Data from patent US20040110954A1, “Methods of synthesizing phenol-contining compounds” (priority 2003, published 2004).
Where two headings read alike, the source gives them in different places.

Tests used:
[1] = In vivo half-life and clearance in the rat; settings: male Sprague-Dawley rats; crossover: 60 min iv infusion, then oral gavage; plasma, noncompartmental analysis
Description: Method for Determining the in vivo Half-life (T½) of Compounds in Table 3. The study was conducted using a crossover design on two separate study days. Three male Sprague-Dawley rats received surgically implanted catheters in the vena cava (via the femoral vein), and in the femoral artery at least three days prior to the study. […] On study day two, the animals (fasted) received the compound by oral gavage (16.0 mL/kg). […] Blood samples were collected prior to dosing and at various times following administration of compounds. Plasma concentrations of the compounds were quantified by an HPLC/MS/MS method (LLQ=10 ng/mL). Noncompartmental analysis was used for pharmacokinetic analysis of plasma concentration versus time data.

[2] = Glucuronidation in rat hepatic microsomes with UDPGA; settings: rat hepatic microsomes ca. 0.5 mg/mL protein, 0.5 uM compound, UDPGA 4 mM, pH 7.4, 37° C.
Description: (§1) The standard procedure for these experiments is as follows: incubations were performed in a final volume of 1.0 mL in a heated block at approximately 37° C. Each incubation contained approximately 0.5 mg/mL microsomal protein and 0.5 uM of the compound. The incubations were conducted with 50 mM potassium phosphate buffer (pH 7.4) and, following a 5 min preincubation at 37° C., were initiated by the addition of cofactor (UDPGA, 4 mM). Aliquots were removed every three minutes and were quenched with two volumes of ACN/EtOH/Acetic acid (80:20:1) containing an appropriate internal standard. Samples were store frozen (ca.−70° C.) until analysis for the quantitation of the parent compound by LC/MS methods. The rate of disappearance of each compound was determined from relative concentration versus time profiles fitted to appropriate exponential decay equations. CLint (mL/min/g liver) was calculated using standard scaling factors.

[3] = Glucuronidation in human hepatic microsomes with UDPGA; settings: human hepatic microsomes ca. 0.5 mg/mL protein, 0.5 uM compound, UDPGA 4 mM, pH 7.4, 37° C.
Description: as §1

[4] = microsomes, pH 7.4
Description: as §1

[5] = microsomes, pH 7.4; remark: listed apart in the source
Description: as §1

| Compound | Clint (mL/min/g liver) rat ([2]; Table 1 diphenylureas) [mL/min/g liver] | CLint (mL/min/g liver) human ([3]; Table 1 diphenylureas) [mL/min/g liver] | further results |
| --- | --- | --- | --- |
| CN(C)S(=O)(=O)c1c(Cl)ccc(NC(=O)Nc2cccc(Cl)c2Cl)c1O [Table 1 Entry 3, N-[4-Chloro-3-(N″,N″-dimethylaminosulfonyl)-2-hydroxyphenyl]-N′-(2,3-dichlorophenyl) urea] | <0.6 | <0.6 | Cl [1]: 65 mL/min/kg; T½ [1]: 11.4 min; Clint (mL/min/g liver) rat ([2]; Table 2 squaramide series): 12 mL/min/g liver; CLint (mL/min/g liver) human ([3]; Table 2 squaramide series): 16 mL/min/g liver |
| CN(C)S(=O)(=O)c1c(Cl)ccc(NC(=O)Nc2ccccc2Br)c1O [Table 1 Entry 4, N-(2-Bromophenyl)-N′[4-chloro-3-(N″,N″-dimethylaminosulfonyl)-2-hydroxyphenyl] urea] | <0.6 | <0.6 | Cl [1]: 72 mL/min/kg; Clint (mL/min/g liver) rat ([2]; Table 2 squaramide series): 5.1 mL/min/g liver; CLint (mL/min/g liver) human ([3]; Table 2 squaramide series): 28 mL/min/g liver |
| CNS(=O)(=O)c1c(Cl)ccc(NC(=O)Nc2cccc(Cl)c2Cl)c1O [Table 1 Entry 5, N-[4-chloro-2-hydroxy-3-(N″-methylaminosulfonyl)phenyl]-N′-(2,3-dichlorophenyl) urea] | <0.6 | <0.6 | Cl [1]: 26 mL/min/kg; T½ [1]: 5.4 min; Clint (mL/min/g liver) rat ([2]; Table 2 squaramide series): 6.7 mL/min/g liver; CLint (mL/min/g liver) human ([3]; Table 2 squaramide series): >50 mL/min/g liver |
| CNS(=O)(=O)c1c(Cl)ccc(NC(=O)Nc2ccccc2Br)c1O [Table 1 Entry 6, N′-(2-bromophenyl)-N′-[4-chloro-2-hydroxy-3-(N″-methylaminosulfonyl)phenyl] urea] | – | – | Clint (mL/min/g liver) rat [4]: <0.6 mL/min/g liver; CLint (mL/min/g liver) human [5]: <0.6 mL/min/g liver |
| COCCNS(=O)(=O)c1c(Cl)ccc(NC(=O)Nc2cccc(Cl)c2Cl)c1O [Table 1 Entry 7, N-[4-chloro-2-hydroxy-3-[N″-(2-methoxyethyl)sufonyl]phenyl]-N′-(2,3-dichlorophenyl) urea] | <0.6 | <0.6 | – |
| CS(=O)(=O)c1c(Cl)ccc(NC(=O)Nc2cccc(Cl)c2Cl)c1O [Table 1 Entry 8, 1-(4Chloro-2-hydroxy-3-methanesulfonyl-phenyl)-3-(2,3-dichloro-phenyl)-urea] | <0.6 | <0.6 | – |
| CS(=O)(=O)c1c(C#N)ccc(NC(=O)Nc2ccccc2Br)c1O [Table 1 Entry 9, 1-(2-Bromo-phenyl)-3-(4-cyano-2-hydroxy-3-methanesulfonyl-phenyl)-urea] | <0.6 | <0.6 | – |
| CCCc1c(C#N)ccc(NC(=O)Nc2ccccc2Br)c1O [Table 1 Entry 10, 1-(2-Bromo-phenyl)-3-(4-cyano-2-hydroxy-3-propyl-phenyl)-urea] | – | 11.3 | melting point: 174 to 175 °C |
| CCC(C)c1c(C#N)ccc(NC(=O)Nc2ccccc2Br)c1O (stereo not shown) [Table 1 Entry 11, 1-(2-Bromo-phenyl)-3-[4-cyano-2-hydroxy-3-(1-methyl-propyl)-phenyl]-urea] | – | 2.8 | – |
| CCCC(C)c1c(C#N)ccc(NC(=O)Nc2ccccc2Br)c1O (stereo not shown) [Table 1 Entry 12, 1-(2-Bromo-phenyl)-3-[4-cyano-2-hydroxy-3-(1-methyl-butyl)-phenyl]-urea] | – | 2.4 | – |
| CC(C)Cc1c(C#N)ccc(NC(=O)Nc2ccccc2Br)c1O [Table 1 Entry 13, 1-(2-Bromo-phenyl)-3-(4-cyano-2-hydroxy-3-isobutyl-phenyl)-urea] | – | 7.6 | – |
| N#Cc1ccc(NC(=O)Nc2ccccc2Br)c(O)c1Br [Table 1 Entry 14, 1-(3-Bromo-4-cyano-2-hydroxy-phenyl)-3-(2-bromo-phenyl)-urea] | – | – | Clint (mL/min/g liver) rat [4]: 27 mL/min/g liver; CLint (mL/min/g liver) human [5]: 3.7 mL/min/g liver |
| C[S+]([O-])c1c(Cl)ccc(NC(=O)Nc2cccc(Cl)c2Cl)c1O (stereo not shown) [Table 1 Entry 15, 1-(4-Chloro-2-hydroxy-3-methanesulfinyl-phenyl)-3-(2,3-dichloro-phenyl)-urea] | 2.6 | 4.1 | – |
| NS(=O)(=O)Cc1c(Cl)ccc(NC(=O)Nc2cccc(Cl)c2Cl)c1O [Table 1 Entry 16, {6-Chloro-3-[3-(2,3-dichloro-phenyl)-ureido]-2-hydroxy-phenyl}-methanesulfonamide] | 1.3 | 11 | – |
| NC(=O)c1c(Cl)ccc(NC(=O)Nc2ccccc2Br)c1O [Table 1 Entry 17, 3-[3-(2-Bromo-phenyl)-ureido]-6-chloro-2-hydroxy-benzamide] | 5.2 | 15.4 | – |
| O=C(Nc1ccc(Cl)c(C(=O)Nc2ccccc2)c1O)Nc1cccc(Cl)c1Cl [Table 1 Entry 18, 6-Chloro-3-[3-(2,3-dichloro-phenyl)-ureido]-2-hydroxy-N-phenyl-benzamide] | 9.3 | 11 | melting point: 244 to 245 °C |
| O=C(Nc1ccc(Cl)c(C(=O)N2CCOCC2)c1O)Nc1cccc(Cl)c1Cl [Table 1 Entry 19, 1-[4-Chloro-2-hydroxy-3-(1-morpholin-4-yl-methanoyl)-phenyl]-3-(2,3-dichloro-phenyl)-urea] | 24 | 21 | – |
| N-(4-chloro-2-hydroxy-3-aminosulfonylphenyl)-N′-(2,3-dichlorophenyl) urea sodium salt [Example 1] | <0.6 | <0.6 | Cl [1]: 4.6 mL/min/kg; T½ [1]: 636 min; Clint (mL/min/g liver) rat ([2]; Table 2 squaramide series): <0.6 mL/min/g liver; CLint (mL/min/g liver) human ([3]; Table 2 squaramide series): <0.6 mL/min/g liver |
